According to patent US5189046A, “Protein kinase C modulators” (Nova Pharmaceutical Corporation, priority 1991, dated 1993):
Where a name gives a salt, the structure may show the parent alone. Read-outs that look alike come from different tables or passages of the source.

How the values were obtained:
[1] = target: Protein kinase C from mouse brain; test: Inhibition of PKC phosphorylation of histone; type: biochemical
Method: Protein kinase C from mouse brain was used in the screening protocol since it contains several isozymes of the enzyme. The tissue was prepared by homogenizing two mouse brains minus the cerebelli in 5 ml of 25 mM Tris-HCl,pH 7.4, containing 2 mM ethylenediamine tetraacetic acid (EDTA) and 1 mM ethylene glycol tetraacetic acid (EGTA), using a polytron at setting 5 for 15 seconds. The homogenate was centrifuged for 1 hour at 50,000×g at 4° C. The supernatant was used as the source of enzyme. The standard reaction mixture (250 μl) contained 20 mM Tris-HCl,pH 7.5, 10 mM Mg (CH3 COO)2, 400 μM CaCl2, 0.1 mM EGTA, […] [γ-^32 P] ATP (1200 cpm/pmol), 100 μg/ml phosphatidylserine, 10 μM histone, 1 μM phorbol 12-myristate-13-acetate, 10 μl enzyme preparation and 25 μl water or test drug. The mixture was incubated at 30° C. for 5 minutes. Mixtures were removed to an ice-bath, a 50 μl aliquot of each was added to Whatman P81 paper and washed in 10% TCA for 20 minutes. The paper was then washed with ethanol, followed by ethyl ether and finally air dryed. PKC activity was quantitated by liquid scintillation counting.

[2] = system: Protein kinase A catalytic subunit; test: Inhibition of protein kinase A phosphorylation of histone; type: biochemical; conditions: for PKA percent inhibition (phosphorylation of histone): percent inhibition at the maximum concentration tested 100 μM
Method: Protein kinase A activity was determined as follows. Protein kinase A catalytic subunit was purchased from Sigma Chemical Company. […] Incubation was at 30° C. for 5 minutes, then the assay was completed as described for protein kinase C above.

[3] = system: protein kinase C from mouse brains; test: 3H-Phorbol dibutyrate binding (inhibition of binding of phorbol ester to protein kinase C); conditions: for IC50: IC50 determined with program EBDA
Method: The ability of active compounds to inhibit the binding of phorbol ester to protein kinase C from mouse brains was measured as follows. Mouse brains were homogenized in ice-cold 50 mM Tris buffer, pH 7.4, containing 0.5 mM CaCl2, in a 15 mL Dounce homogenizer with 10 gentle strokes. The homogenate was centrifuged at 100,000×g for 1 hour at 4° C. The pellets were resuspended in 25 mL of the same ice-cold buffer and protein concentration was adjusted to 0.4 mg/mL. To each binding tube was added […] of the buffer, […] of [20-^3 H]Phorbol 12,13-dibutyrate, […] final concentration in assay, […] of test drug or displacing ligand, 50 uL of 50 mM Tris, pH 7.4 at 25° C. containing 1% bovine serum albumin, and […] enzyme preparation. Tubes were incubated at 37° C. for 30 minutes, then terminated by filtration onto Whatman GF/B glass fiber filters followed by washing with 2 mL ice-cold 50 mM Tris, pH 7.4, four times. Nonspecific binding was defined as that binding occurring in the presence of 1 mM phorbol ester. Percent inhibition was determined for each inhibitor candidate, and IC50 values were determined using the computer program "EBDA".

[4] = mouse brain PKC, histone, 30° C., 5 minutes, read-out: PKC IC50 (phosphorylation of histone)
[5] = text summary of Table IV, read-out: IC50, inhibition of phosphorylation by PKC

SMILES	IC50 [1, 4] [µM]	IC50 [1, 5] [µM]	PKA percent inhibition (phosphorylation of histone) [2] [%]	% inhibition @ 100 μM (3H-phorbol dibutyrate binding) ([3]; dihydrochloride) [%]	IC50 ([3]; dihydrochloride) [µM]	% inhibition @ 100 μM (3H-phorbol dibutyrate binding) [3] [%]	IC50 [3] [µM]	IC50 ([2]; reference standards only, read-out: PKA IC50 (phosphorylation of histone)) [µM]
CCCCCCCCCCCCC(=O)N1CCCCC1CNC(=O)[C@@H](N)CCCCN (stereo partly shown) [2,6-diamino-N-([1-(1-oxotridecyl)-2-piperidinyl]methyl)hexan] [2,6-Diamino-N-([1-(1-oxotridecyl)-2-piperidinyl]methyl)hexanamide dihydrochloride]	13	13	0	22	191			
CCCCCCCCCCCCC(=O)N1CCCCC1CNC(=O)[C@@H](N)CCCCN (stereo partly shown) [2,6-diamino-N-([1-(1-oxotridecyl)-2-piperidinyl]methylhexana] [2,6-diamino-N-([1-(1-oxotridecyl)-2-piperidinyl]methylhexanamidedihydrochloride]				47	133			
CCCCCCCCCCCCC(=O)N1CCCCC1CNC(=O)[C@@H](N)CO (stereo partly shown) [2-Amino-3-hydroxy-N-([1-(1-oxotridecyl)-2-piperidinyl]methyl)propanamide hydrochloride]	44		0			9		
CCCCCCCCCCCCC(=O)N1CCCCC1CNC(=O)[C@@H](N)Cc1c[nH]cn1 (stereo partly shown) [2-Amino-N-([1-(1-oxotridecyl)-2-piperidinyl]methyl)-3-(1H-imidazol-4-yl)propanamide dihydrochloride]	60		0			28	343	
CCCCCCCCCCCCC(=O)N1CCCCC1CNC(=O)CN.Cl (stereo not shown) [2-Amino-N-([1-(1-oxotridecyl)-2-piperidinyl]methyl)ethanamide hydrochloride]	51		0			21		
CCCCCCCCCCCCC(=O)N1CCCCC1CNC(=O)[C@H](C)N (stereo partly shown) [2-Amino-N-([1-(1-oxotridecyl)-2-piperidinyl]methyl)propanamide hydrochloride]	52		0			49		
CCCCCCCCCCCCC(=O)N1CCCCC1CNC(=O)[C@@H](N)CCCN (stereo partly shown) [2.5-Diamino-N-([1-(1-oxotridecyl)-2-piperidinyl]methyl)pentanamide dihydrochloride]	18		0					
CCCCCCCCCCCC(=O)N1CCC[C@H]1CNC(=O)[C@@H](N)CCCCN [2.6-Diamino-N-([1-(1-oxododecyl)-2-pyrrolidinyl]methyl)hexanamide dihydrochloride]	46		0					
CCCCCCCCCCCCC(=O)N1CCCCC1CNC(=O)[C@@H](N)CC(=O)OCc1ccccc1 (stereo partly shown) [3-Amino-4-oxo-4-[([1-(1-oxotridecyl)-2-piperidinyl]methyl)amino]butanoic acid phenylmethyl ester hydrochloride]	92	92	0			2		
CCCCCCCCCCCCC(=O)N1CCCCC1CNC(=O)CCN.O=C(O)/C=C/C(=O)O (stereo not shown) [3-Amino-N-([1-(1-oxotridecyl)-2-piperidinyl]methyl)propanamide fumarate]	36		0			45	139	
CCCCCCCCCCCCC(=O)N1CCCCC1CNC(=O)[C@@H](N)CCC(N)=O (stereo partly shown) [4-Amino-5-oxo-5-[([1-(1-oxotridecyl)-2-piperidinyl]methyl)amino]pentanamide hydrochloride]	72		0			17		
CC1CNCCN1S(=O)(=O)c1cccc2cnccc12 (stereo not shown) [Example H-7, reference compound]	9							28
CCCCCCCCCCCCC(=O)N1CCCCC1CNC(=O)C1CCCNC1 (stereo not shown) [N-[([1-Oxotridecyl)-2-piperidinyl]methyl)amino]3-methyloxopiperidine hydrochloride]	29		0			34	157	
CCCCCCCCCCCCC/C=C/[C@@H](O)[C@@H](N)CO [Sphingosine, reference compound]	15		88					
